The source of these data is patent publication US12479847B2 (DANA-FARBER CANCER INSTITUTE, INC., priority 2019, dated 2025).

Where two headings read alike, the source gives them in different places.

What all share (assay): KINOMEscan (ScanMAX) kinase profiling
Holding throughout (assay type): binding

In test [1] the target is T1, panel of 468 kinases (Homo sapiens, UniProt P43405).
T1 construct: purchased KINOMEscan (ScanMAX) service
Conditions: SYK; 1 μM; read-out: % control.

For test [2], the target named is T2, panel of 468 kinases (Homo sapiens, UniProt Q8TDC3).
T2 construct: purchased KINOMEscan (ScanMAX) service
T2 sequence (Q8TDC3 1-778): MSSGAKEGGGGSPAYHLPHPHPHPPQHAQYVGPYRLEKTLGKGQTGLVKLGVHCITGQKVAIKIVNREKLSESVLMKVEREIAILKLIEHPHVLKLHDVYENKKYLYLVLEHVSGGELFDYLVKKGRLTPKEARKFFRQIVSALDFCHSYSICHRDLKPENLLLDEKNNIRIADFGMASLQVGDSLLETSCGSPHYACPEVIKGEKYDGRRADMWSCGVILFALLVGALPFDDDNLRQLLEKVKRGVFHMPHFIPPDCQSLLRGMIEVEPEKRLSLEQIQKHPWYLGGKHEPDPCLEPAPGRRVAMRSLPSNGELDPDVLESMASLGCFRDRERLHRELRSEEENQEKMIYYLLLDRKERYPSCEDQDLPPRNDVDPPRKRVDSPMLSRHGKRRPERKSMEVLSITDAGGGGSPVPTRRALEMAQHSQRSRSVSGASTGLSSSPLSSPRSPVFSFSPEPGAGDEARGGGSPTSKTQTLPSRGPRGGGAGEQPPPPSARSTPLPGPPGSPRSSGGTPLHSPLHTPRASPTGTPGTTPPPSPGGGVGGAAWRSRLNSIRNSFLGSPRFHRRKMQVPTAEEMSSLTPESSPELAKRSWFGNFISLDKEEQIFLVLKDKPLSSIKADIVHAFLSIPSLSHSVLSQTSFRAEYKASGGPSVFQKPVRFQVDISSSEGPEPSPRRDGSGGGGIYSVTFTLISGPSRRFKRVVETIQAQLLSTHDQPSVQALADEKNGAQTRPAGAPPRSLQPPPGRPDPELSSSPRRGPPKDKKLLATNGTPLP
As to conditions: BRSK1; 1 μM; read-out: % control.

Test [3] concerns the target T3, panel of 468 kinases (Homo sapiens, UniProt Q9Y2H9).
T3 construct: purchased KINOMEscan (ScanMAX) service
As to conditions: MAST1; 1 μM; read-out: % control.

Test [4] concerns the target T4, panel of 468 kinases (Homo sapiens, UniProt P09619).
T4 construct: purchased KINOMEscan (ScanMAX) service
As to conditions: PDGFRB; 1 μM; read-out: % control.

The target in test [5] is T5, panel of 468 kinases (Homo sapiens, UniProt O75582).
T5 construct: purchased KINOMEscan (ScanMAX) service
As to conditions: 1 μM, read-out: % control.

Test [6] addresses T6, panel of 468 kinases (Homo sapiens, UniProt P42336, E542K).
T6 construct: purchased KINOMEscan (ScanMAX) service
As to conditions: PIK3CA(E542K); 1 μM; read-out: % control.

The target in test [7] is T7, panel of 468 kinases (Homo sapiens, UniProt P49674).
T7 construct: purchased KINOMEscan (ScanMAX) service
As to conditions: CSNK1E; 1 μM; read-out: % control.

Test [8] addresses T8, panel of 468 kinases (Homo sapiens, UniProt P29317).
T8 construct: purchased KINOMEscan (ScanMAX) service
Conditions: EPHA2; 1 μM; read-out: % control.

The target of test [9] is T9, panel of 468 kinases (Homo sapiens, UniProt Q15139).
T9 construct: purchased KINOMEscan (ScanMAX) service
T9 sequence (Q15139 1-912): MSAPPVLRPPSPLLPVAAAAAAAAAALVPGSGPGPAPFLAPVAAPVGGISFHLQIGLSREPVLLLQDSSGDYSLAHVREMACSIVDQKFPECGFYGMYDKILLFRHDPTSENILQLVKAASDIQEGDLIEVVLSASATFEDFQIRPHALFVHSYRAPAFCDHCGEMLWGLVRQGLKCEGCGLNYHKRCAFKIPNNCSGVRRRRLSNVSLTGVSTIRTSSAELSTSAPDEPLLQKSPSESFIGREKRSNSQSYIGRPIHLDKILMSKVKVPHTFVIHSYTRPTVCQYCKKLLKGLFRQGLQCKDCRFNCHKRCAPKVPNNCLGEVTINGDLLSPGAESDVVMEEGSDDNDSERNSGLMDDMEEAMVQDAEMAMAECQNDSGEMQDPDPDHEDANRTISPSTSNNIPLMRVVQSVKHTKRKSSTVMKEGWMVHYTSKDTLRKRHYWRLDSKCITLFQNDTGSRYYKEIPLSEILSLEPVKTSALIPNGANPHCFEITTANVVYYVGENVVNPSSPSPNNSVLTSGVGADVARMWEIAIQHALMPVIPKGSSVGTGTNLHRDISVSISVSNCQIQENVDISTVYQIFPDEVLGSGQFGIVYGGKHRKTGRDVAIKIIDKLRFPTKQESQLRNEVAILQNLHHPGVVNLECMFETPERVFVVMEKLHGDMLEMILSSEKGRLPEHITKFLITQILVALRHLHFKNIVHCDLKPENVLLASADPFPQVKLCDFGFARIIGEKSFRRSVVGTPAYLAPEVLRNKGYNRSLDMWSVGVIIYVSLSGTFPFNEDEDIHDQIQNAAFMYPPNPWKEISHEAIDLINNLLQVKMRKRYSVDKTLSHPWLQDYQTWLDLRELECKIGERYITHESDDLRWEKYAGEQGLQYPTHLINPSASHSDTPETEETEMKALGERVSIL
As to conditions: PRKD1; 1 μM; read-out: % control.

T6 sequence (P42336 whole entry E542K): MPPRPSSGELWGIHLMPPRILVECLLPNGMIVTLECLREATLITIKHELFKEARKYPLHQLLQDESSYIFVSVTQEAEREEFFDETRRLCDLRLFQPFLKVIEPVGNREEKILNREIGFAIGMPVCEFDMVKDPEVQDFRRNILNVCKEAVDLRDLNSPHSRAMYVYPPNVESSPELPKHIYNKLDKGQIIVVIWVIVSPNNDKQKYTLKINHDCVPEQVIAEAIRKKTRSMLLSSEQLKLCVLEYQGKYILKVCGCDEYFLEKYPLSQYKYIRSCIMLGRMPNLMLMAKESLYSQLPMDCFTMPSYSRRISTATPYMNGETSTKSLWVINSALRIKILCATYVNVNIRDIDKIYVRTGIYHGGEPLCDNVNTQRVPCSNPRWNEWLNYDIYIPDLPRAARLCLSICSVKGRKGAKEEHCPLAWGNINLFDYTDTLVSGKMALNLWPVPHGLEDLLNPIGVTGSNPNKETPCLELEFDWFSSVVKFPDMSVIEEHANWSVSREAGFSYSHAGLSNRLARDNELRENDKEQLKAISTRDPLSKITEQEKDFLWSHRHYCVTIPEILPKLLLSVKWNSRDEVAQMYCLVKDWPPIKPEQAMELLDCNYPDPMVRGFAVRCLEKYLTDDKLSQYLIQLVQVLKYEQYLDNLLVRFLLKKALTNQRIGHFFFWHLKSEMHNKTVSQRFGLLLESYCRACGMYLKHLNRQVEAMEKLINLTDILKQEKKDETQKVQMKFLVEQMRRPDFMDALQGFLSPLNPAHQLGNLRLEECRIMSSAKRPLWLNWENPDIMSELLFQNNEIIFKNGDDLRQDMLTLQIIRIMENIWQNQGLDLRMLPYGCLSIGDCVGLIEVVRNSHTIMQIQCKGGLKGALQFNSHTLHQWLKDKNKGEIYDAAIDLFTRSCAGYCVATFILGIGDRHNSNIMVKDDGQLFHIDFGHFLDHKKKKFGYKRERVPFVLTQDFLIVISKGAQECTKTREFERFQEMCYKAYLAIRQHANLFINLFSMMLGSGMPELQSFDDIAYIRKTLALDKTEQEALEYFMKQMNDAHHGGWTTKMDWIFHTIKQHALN
T5 sequence (O75582 whole entry): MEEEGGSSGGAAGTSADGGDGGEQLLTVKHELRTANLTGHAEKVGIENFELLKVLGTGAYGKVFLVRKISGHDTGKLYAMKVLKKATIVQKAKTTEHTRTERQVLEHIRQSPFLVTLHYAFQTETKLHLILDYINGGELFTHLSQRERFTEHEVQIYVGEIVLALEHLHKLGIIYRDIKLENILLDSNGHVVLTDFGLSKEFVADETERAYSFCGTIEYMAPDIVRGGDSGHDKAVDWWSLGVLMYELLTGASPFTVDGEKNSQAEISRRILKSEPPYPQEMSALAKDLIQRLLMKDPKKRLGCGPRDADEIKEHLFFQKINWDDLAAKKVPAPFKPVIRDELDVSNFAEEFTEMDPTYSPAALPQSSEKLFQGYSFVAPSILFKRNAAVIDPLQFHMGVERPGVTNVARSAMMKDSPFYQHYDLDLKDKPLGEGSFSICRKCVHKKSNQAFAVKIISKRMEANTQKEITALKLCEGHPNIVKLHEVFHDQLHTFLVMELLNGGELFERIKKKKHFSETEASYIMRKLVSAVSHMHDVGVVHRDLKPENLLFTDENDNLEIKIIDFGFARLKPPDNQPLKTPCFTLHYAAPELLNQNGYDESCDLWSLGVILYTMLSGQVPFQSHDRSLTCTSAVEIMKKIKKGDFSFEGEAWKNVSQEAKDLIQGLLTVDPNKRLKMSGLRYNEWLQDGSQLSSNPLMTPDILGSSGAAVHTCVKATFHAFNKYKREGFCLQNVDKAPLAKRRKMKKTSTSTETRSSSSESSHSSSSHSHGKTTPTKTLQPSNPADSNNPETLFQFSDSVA
T7 sequence (P49674 whole entry): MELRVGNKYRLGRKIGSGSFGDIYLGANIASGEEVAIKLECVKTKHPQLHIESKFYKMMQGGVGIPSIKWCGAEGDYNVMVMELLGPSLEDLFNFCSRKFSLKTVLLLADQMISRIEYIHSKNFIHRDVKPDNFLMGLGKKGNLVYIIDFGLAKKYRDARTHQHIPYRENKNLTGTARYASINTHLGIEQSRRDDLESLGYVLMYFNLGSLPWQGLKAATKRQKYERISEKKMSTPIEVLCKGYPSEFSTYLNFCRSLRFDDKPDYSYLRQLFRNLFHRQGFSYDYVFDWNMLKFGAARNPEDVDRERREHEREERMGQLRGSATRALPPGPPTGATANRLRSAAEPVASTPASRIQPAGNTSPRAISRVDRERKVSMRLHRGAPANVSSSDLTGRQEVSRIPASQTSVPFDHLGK
T8 sequence (P29317 24-976): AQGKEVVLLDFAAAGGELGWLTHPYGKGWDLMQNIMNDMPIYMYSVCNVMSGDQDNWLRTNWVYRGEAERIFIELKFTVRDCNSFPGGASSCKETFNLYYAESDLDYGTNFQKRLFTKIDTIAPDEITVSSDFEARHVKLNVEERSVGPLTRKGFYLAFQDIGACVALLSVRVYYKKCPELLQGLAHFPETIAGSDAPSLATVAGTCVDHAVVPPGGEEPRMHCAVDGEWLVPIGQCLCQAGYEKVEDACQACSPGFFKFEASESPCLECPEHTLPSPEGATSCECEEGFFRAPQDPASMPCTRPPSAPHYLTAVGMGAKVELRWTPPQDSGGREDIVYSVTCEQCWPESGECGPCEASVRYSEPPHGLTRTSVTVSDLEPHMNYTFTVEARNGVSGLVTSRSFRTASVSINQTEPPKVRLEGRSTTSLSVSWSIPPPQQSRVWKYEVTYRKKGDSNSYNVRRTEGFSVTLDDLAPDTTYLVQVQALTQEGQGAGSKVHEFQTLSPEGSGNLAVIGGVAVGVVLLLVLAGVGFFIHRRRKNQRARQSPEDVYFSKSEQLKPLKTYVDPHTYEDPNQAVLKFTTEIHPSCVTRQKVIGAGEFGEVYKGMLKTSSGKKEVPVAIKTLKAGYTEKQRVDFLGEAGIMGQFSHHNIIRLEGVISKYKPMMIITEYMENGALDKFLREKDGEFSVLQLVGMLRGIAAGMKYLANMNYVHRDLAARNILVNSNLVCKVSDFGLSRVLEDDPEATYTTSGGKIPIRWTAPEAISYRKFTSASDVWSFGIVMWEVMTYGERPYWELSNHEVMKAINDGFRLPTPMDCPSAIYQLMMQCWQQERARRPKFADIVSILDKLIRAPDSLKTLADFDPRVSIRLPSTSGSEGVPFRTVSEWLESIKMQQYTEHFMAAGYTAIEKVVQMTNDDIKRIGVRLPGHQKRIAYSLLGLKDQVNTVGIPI
T4 sequence (P09619 33-1106): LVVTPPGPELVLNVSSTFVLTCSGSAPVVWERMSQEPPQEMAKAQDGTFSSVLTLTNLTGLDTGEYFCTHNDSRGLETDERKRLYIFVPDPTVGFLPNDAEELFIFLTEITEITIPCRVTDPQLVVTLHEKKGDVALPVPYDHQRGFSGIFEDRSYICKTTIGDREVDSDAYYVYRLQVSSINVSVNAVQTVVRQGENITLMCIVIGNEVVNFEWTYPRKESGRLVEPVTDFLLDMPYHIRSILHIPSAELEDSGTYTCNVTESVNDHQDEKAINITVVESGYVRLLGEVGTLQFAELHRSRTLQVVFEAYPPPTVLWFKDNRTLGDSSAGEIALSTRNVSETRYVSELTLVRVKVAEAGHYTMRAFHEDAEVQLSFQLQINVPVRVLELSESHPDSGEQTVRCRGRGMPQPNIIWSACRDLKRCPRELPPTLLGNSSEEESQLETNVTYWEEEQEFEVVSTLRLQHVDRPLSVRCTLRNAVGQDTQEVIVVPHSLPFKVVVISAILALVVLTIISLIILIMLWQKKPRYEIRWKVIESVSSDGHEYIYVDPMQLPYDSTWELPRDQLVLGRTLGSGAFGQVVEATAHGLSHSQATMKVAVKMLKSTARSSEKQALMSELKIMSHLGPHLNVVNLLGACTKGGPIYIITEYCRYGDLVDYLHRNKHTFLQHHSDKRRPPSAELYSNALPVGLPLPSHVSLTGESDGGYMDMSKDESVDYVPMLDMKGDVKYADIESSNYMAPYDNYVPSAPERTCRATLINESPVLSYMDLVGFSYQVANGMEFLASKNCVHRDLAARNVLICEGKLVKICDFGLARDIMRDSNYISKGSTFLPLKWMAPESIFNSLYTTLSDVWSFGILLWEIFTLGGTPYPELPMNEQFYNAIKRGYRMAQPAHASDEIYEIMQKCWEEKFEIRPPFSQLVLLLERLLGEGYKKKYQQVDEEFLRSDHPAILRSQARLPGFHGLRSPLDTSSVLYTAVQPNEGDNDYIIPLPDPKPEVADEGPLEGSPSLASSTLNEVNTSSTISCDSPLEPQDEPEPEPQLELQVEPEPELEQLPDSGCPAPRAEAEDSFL

For the compound `CNc1nc(Nc2ccc(C(=O)N3CCC(N4CCOCC4)CC3)c3c2OCO3)nc2[nH]cc(Cl)c12` [Compound 75, (7-((5-chloro-4-(methylamino)-7H-pyrrolo[2,3-d]pyrimidin-2-yl)amino)benzo[d][1,3]dioxol-4-yl)(4-morpholinopiperidin-1-yl)methanone], the remaining binding at 1 µM was 35% on panel of 468 kinases [1]; 100% on panel of 468 kinases [2]; 93% at panel of 468 kinases [3]; 56% on panel of 468 kinases [4]; 100% at panel of 468 kinases [5] (RPS6KA5(Kin.Dom.1-N-terminal)); 21% at panel of 468 kinases [5] (RPS6KA5(Kin.Dom.2-C-terminal)). Moreover, the remaining binding at 1 µM was found to be 78% at panel of 468 kinases [6], 30% on panel of 468 kinases [7], 96% on panel of 468 kinases [8] and 7.3% at panel of 468 kinases [9].

Consider `CNc1nc(Nc2ccc(P3(=O)CCN(C4CCOCC4)CC3)cc2OC)nc2[nH]cc(Cl)c12` [Compound 77, 4-(4-((5-chloro-4-(methylamino)-7H-pyrrolo[2,3-d]pyrimidin-2-yl)amino)-3-methoxyphenyl)-1-(tetrahydro-2H-pyran-4-yl)-1,4-azaphosphinane 4-oxide], for which the remaining binding at 1 µM came to 43% on panel of 468 kinases [1]; 96% at panel of 468 kinases [2]; 97% at panel of 468 kinases [3]; 100% on panel of 468 kinases [4]; 94% on panel of 468 kinases [5] (RPS6KA5(Kin.Dom.1-N-terminal)); 20% at panel of 468 kinases [5] (RPS6KA5(Kin.Dom.2-C-terminal)). The remaining binding at 1 µM on panel of 468 kinases [6] came out at 67%; at panel of 468 kinases [7] it was 15%; at panel of 468 kinases [8], 100%; at panel of 468 kinases [9], 7%.

Take `CNc1nc(Nc2ccc(S(=O)(=O)N3CCC(N4CCOCC4)CC3)cc2OC)nc2[nH]cc(Cl)c12` [Compound 12, 5-chloro-N2-(2-methoxy-4-((4-morpholinopiperidin-1-yl)sulfonyl)phenyl)-N4-methyl-7H-pyrrolo[2,3-d]pyrimidine-2,4-diamine]: the remaining binding at 1 µM at panel of 468 kinases [1] was determined as 55%; on panel of 468 kinases [2] it was 100%; at panel of 468 kinases [3] it was 100%; on panel of 468 kinases [4] it was 89%; at panel of 468 kinases [5] (RPS6KA5(Kin.Dom.1-N-terminal)) it was 100%; at panel of 468 kinases [5] (RPS6KA5(Kin.Dom.2-C-terminal)), 69%. In addition, the remaining binding at 1 µM came to 65% at panel of 468 kinases [6], 18% on panel of 468 kinases [7], 100% at panel of 468 kinases [8] and 8.8% on panel of 468 kinases [9].
